“And” between values parts separate entries of the source, which are not always exact repeats. Equal entries are not always repeated. Structures can show the parent of a compound that is named as a salt. Where two headings read alike, the source gives them in different places.
How the values were obtained:
[1] = test system: prostate glands of castrated male SD rats; test: Anti-androgenic active effects in castrated male SD rats: weight of prostate glands after TP or DHTP inducement; assay type: in vivo; details: for Average weight of prostate glands, prostatic hyperplasia inducement group: hormone alone hypodermic (TP 10 μg or DHTP 20 μg) + vehicle oral; for Average weight of prostate glands, prostatic hyperplasia inducement group / Average weight of prostate glands: one week, solvent control 23.3±1.5 mg; for Weight of prostate glands after inducement with DHTP / Size of prostate glands enlarged by inducement with TP: one week oral
Experimental: In-Vivo Experiment for the Observation of Anti-Androgenic Active Effects of Castrated Male SD Rats (1)
(§1) Each compound is administered orally continuously for one week according to the method of administration shown in Table 1, prostate glands are removed from the rats in each group while watching, and their weights are measured.

[2] = Body weight of castrated male SD rats after one week; details: hormone alone (TP 10 μg or DHTP 20 μg) + vehicle oral, solvent control 122.1
Experimental: as §1

[3] = test system: hair loss; details: external application; cited from earlier work
[4] = test system: prostate glands of normal male SD rats; test: Anti-androgenic effects in normal male SD rats: weight of prostate glands after 2 weeks; assay type: in vivo; details: oral; for Average weight of prostate glands: normal 8-week-old male SD rats, solvent control 333.8; for Weight of prostate glands versus solvent control group: normal male SD rats
Description: In-Vivo Experiment for the Observation of Anti-Androgenic Effects of Normal Male SD Rats (2)
After the experiments are completed, the changes in the weight of prostate glands removed from normal SD rats and the changes in the weight of normal SD rats measured are shown in Tables 4 and 5 and diagrammatized in FIGS. 3 and 4.

[5] = test system: hair loss; details: for Degree of efficacy: 10-20% (number of persons) / Degree of efficacy: 20-40% (number of persons) / Degree of efficacy: 40-60% (number of persons) / Degree of efficacy: 60-80% (number of persons) / Degree of efficacy: Greater than 90% (number of persons) / Degree of efficacy: No effect (number of persons) / Time taken for the efficacy to be shown: 3-5 days (number of persons) / Time taken for the efficacy to be shown: 7 days (number of persons) / Time taken for the efficacy to be shown: 14 days (number of persons) / Time taken for the efficacy to be shown: 21 days (number of persons) / Time taken for the efficacy to be shown: 28 days (number of persons) / Time taken for the efficacy to be shown: Minor effect (number of persons): Example 3 primary specimens, extruded material, 10 mg effective component once a day
Description: Clinical Experiment to Study Effects for the Prevention of Hair Loss, and for Hair Toning and Hair Growth (1)
The extruded material thus obtained is dried in the floating air layer. The therapeutical efficacy for the prevention of hair loss is experimented clinically by using thus obtained extruded material as shown in Tables 6 and 7. The objects of clinical experiments are selected based on 35 male and female healthy adults older than 20 years old who suffer from symptoms of hair loss. The therapeutical efficacy of female hair loss is also tested as females suffering from hair loss are included in the specimen population (including 5 males in the placebo control group).

[6] = test system: hair loss
Description: Clinical Experiment to Study Effects for the Prevention of Hair Loss, and for Hair Toning and Hair Growth (2)
The effect for the prevention of hair loss is investigated by administering the tablets thus manufactured to 20 healthy adult males who are older than 20 years old and selected to be specimens (including 5 males in the placaebo control group) once a day.

[7] = test system: hair loss; details: for Degree of efficacy: 10-20% (number of persons) / Degree of efficacy: 20-40% (number of persons) / Degree of efficacy: 40-60% (number of persons) / Degree of efficacy: 60-80% (number of persons) / Degree of efficacy: Greater than 90% (number of persons) / Degree of efficacy: No effect (number of persons) / Time taken for the efficacy to be shown: 3-5 days (number of persons) / Time taken for the efficacy to be shown: 7 days (number of persons) / Time taken for the efficacy to be shown: 14 days (number of persons) / Time taken for the efficacy to be shown: 21 days (number of persons) / Time taken for the efficacy to be shown: 28 days (number of persons) / Time taken for the efficacy to be shown: Minor effect (number of persons): Example 5 tertiary specimens, tablets three times a day (30 mg=3×10 mg)
Experimental: Clinical Experiment to Study Effects for the Prevention of Hair Loss, and for Hair Toning and Hair Growth (3)
The effects for the prevention of hair loss are investigated by administering the tablets thus manufactured to 5 healthy adult males who are older than 20 years old and selected to be specimens three times a day (30 mg=3×10 mg).

[8] = test system: hairs; details: Example 6; tablets 10 mg once a day for six months; FIG. 5A/5B
Description: Clinical Experiments to Study Effects of Epilation
The effects of epilation are investigated by administering the tablets thus manufactured once a day.

[9] = Example 3, 10 mg once a day, no effects with placebo
[10] = Example 4 secondary specimens, Total, tablets, 10 mg effective component once a day

CCC(=O)O[C@H]1CC[C@H]2[C@@H]3CC[C@H]4CC(=O)CC[C@]4(C)[C@H]3CC[C@]12C [DHTP, dihydrotestosterone propionate]
Average weight of prostate glands, prostatic hyperplasia inducement group [1]: 58.4 ± 2.0 mg and 58.4 mg | Average body weight, inducement group [2]: 118.7

Nc1cc(N2CCCCC2)nc(N)[n+]1[O-] [Minoxidil, 6-(1-piperidinyl-2,4-pyrimidineamine-3-oxide)]
Reported side effects [3]: contact dermatitis, dried mouth, lowering of blood pressure, dizziness

CCC(=O)O[C@H]1CC[C@H]2[C@@H]3CCC4=CC(=O)CC[C@]4(C)[C@H]3CC[C@]12C [TP, testosterone propionate]
Average weight of prostate glands, prostatic hyperplasia inducement group [1]: 63.6 ± 3.2 mg and 63.6 mg

O=C(O)COCCN1CCN(C(c2ccccc2)c2ccc(Cl)cc2)CC1 (centres unmarked) [composition of the present invention, 2-[2-[4-[(4-chlorophenyl)phenylmethyl]-1-piperazinyl]ethoxy]-acetic acid dihydrochloride]
Average weight of prostate glands ([1]; DHTP 20 μg hypodermic + drug oral daily (finasteride 0.5 mg, composition 5 mg), dihydrochloride): 52.2 ± 1.1 mg and 52.2 mg | Weight of prostate glands after inducement with DHTP [1]: not greatly affected | Average weight of prostate glands ([1]; TP 10 μg hypodermic + drug oral daily (finasteride 0.5 mg, composition 5 mg), dihydrochloride): 25.1 mg | Size of prostate glands enlarged by inducement with TP [1]: reduced to the normal size | Average weight of prostate glands [4]: 226.7 mg | Weight of prostate glands versus solvent control group [4]: significantly lower | Effect of prevention of hair loss, time course [5, 9]: hair loss is prevented in almost all specimens in about three weeks | Effects of the prevention of hair loss in males and females [5, 9]: remarkable effects of the prevention of hair loss are observed both in males and females | Degree of efficacy: 10-20% (number of persons) ([5]; Female (10)): 0 | Degree of efficacy: 20-40% (number of persons) ([5]; Female (10)): 0 | Degree of efficacy: 40-60% (number of persons) ([5]; Female (10)): 3 | Degree of efficacy: 60-80% (number of persons) ([5]; Female (10)): 6 | Degree of efficacy: Greater than 90% (number of persons) ([5]; Female (10)): 0 | Degree of efficacy: No effect (number of persons) ([5]; Female (10)): 1 | Time taken for the efficacy to be shown: 3-5 days (number of persons) ([5]; Female (10)): 0 | Time taken for the efficacy to be shown: 7 days (number of persons) ([5]; Female (10)): 1 | Time taken for the efficacy to be shown: 14 days (number of persons) ([5]; Female (10)): 6 | Time taken for the efficacy to be shown: 21 days (number of persons) ([5]; Female (10)): 2 | Time taken for the efficacy to be shown: 28 days (number of persons) ([5]; Female (10)): 0 | Time taken for the efficacy to be shown: Minor effect (number of persons) ([5]; Female (10)): 1 | Degree of efficacy: 10-20% (number of persons) ([5]; Male (20)): 0 | Degree of efficacy: 20-40% (number of persons) ([5]; Male (20)): 0 | Degree of efficacy: 40-60% (number of persons) ([5]; Male (20)): 6 | Degree of efficacy: 60-80% (number of persons) ([5]; Male (20)): 13 | Degree of efficacy: Greater than 90% (number of persons) ([5]; Male (20)): 1 | Degree of efficacy: No effect (number of persons) ([5]; Male (20)): 0 | Time taken for the efficacy to be shown: 3-5 days (number of persons) ([5]; Male (20)): 0 | Time taken for the efficacy to be shown: 7 days (number of persons) ([5]; Male (20)): 6 | Time taken for the efficacy to be shown: 14 days (number of persons) ([5]; Male (20)): 11 | Time taken for the efficacy to be shown: 21 days (number of persons) ([5]; Male (20)): 3 | Time taken for the efficacy to be shown: 28 days (number of persons) ([5]; Male (20)): 0 | Time taken for the efficacy to be shown: Minor effect (number of persons) ([5]; Male (20)): 0 | Degree of efficacy: 10-20% (number of persons) ([5]; Total): 0 | Degree of efficacy: 20-40% (number of persons) ([5]; Total): 0 | Degree of efficacy: 40-60% (number of persons) ([5]; Total): 9 | Degree of efficacy: 60-80% (number of persons) ([5]; Total): 19 | Degree of efficacy: Greater than 90% (number of persons) ([5]; Total): 1 | Degree of efficacy: No effect (number of persons) ([5]; Total): 1 | Time taken for the efficacy to be shown: 3-5 days (number of persons) ([5]; Total): 0 | Time taken for the efficacy to be shown: 7 days (number of persons) ([5]; Total): 7 | Time taken for the efficacy to be shown: 14 days (number of persons) ([5]; Total): 17 | Time taken for the efficacy to be shown: 21 days (number of persons) ([5]; Total): 5 | Time taken for the efficacy to be shown: 28 days (number of persons) ([5]; Total): 0 | Time taken for the efficacy to be shown: Minor effect (number of persons) ([5]; Total): 1 | Color and thickness of newly coming out hairs ([6]; Example 4, tablets 10 mg once a day): much stronger than those of old hairs | Effects for the prevention of hair loss ([6]; Example 4, tablets 10 mg once a day, 15 people, no effects with placebo): superior within three weeks in all of 15 people | Degree of efficacy: 10-20% (number of persons) [6, 10]: 0 | Degree of efficacy: 20-40% (number of persons) [6, 10]: 0 | Degree of efficacy: 40-60% (number of persons) [6, 10]: 5 | Degree of efficacy: 60-80% (number of persons) [6, 10]: 9 | Degree of efficacy: Greater than 90% (number of persons) [6, 10]: 1 | Degree of efficacy: No effect (number of persons) [6, 10]: 0 | Time taken for the efficacy to be shown: 3-5 days (number of persons) [6, 10]: 0 | Time taken for the efficacy to be shown: 7 days (number of persons) [6, 10]: 1 | Time taken for the efficacy to be shown: 14 days (number of persons) [6, 10]: 6 | Time taken for the efficacy to be shown: 21 days (number of persons) [6, 10]: 8 | Time taken for the efficacy to be shown: 28 days (number of persons) [6, 10]: 0 | Time taken for the efficacy to be shown: Minor effect (number of persons) [6, 10]: 0 | Color and thickness of newly produced hairs ([7]; Example 5, tablets 30 mg a day): much stronger than those of old hairs | Effects for the prevention of hair loss ([7]; Example 5, tablets 30 mg a day, 5 people): superior within one week in all of 5 people | Degree of efficacy: 10-20% (number of persons) ([7]; Male (5)): 0 | Degree of efficacy: 20-40% (number of persons) ([7]; Male (5)): 0 | Degree of efficacy: 40-60% (number of persons) ([7]; Male (5)): 0 | Degree of efficacy: 60-80% (number of persons) ([7]; Male (5)): 2 | Degree of efficacy: Greater than 90% (number of persons) ([7]; Male (5)): 3 | Degree of efficacy: No effect (number of persons) ([7]; Male (5)): 0 | Time taken for the efficacy to be shown: 3-5 days (number of persons) ([7]; Male (5)): 0 | Time taken for the efficacy to be shown: 7 days (number of persons) ([7]; Male (5)): 5 | Time taken for the efficacy to be shown: 14 days (number of persons) ([7]; Male (5)): 0 | Time taken for the efficacy to be shown: 21 days (number of persons) ([7]; Male (5)): 0 | Time taken for the efficacy to be shown: 28 days (number of persons) ([7]; Male (5)): 0 | Time taken for the efficacy to be shown: Minor effect (number of persons) ([7]; Male (5)): 0 | Degree of efficacy: 10-20% (number of persons) ([7]; Total (5)): 0 | Degree of efficacy: 20-40% (number of persons) ([7]; Total (5)): 0 | Degree of efficacy: 40-60% (number of persons) ([7]; Total (5)): 0 | Degree of efficacy: 60-80% (number of persons) ([7]; Total (5)): 2 | Degree of efficacy: Greater than 90% (number of persons) ([7]; Total (5)): 3 | Degree of efficacy: No effect (number of persons) ([7]; Total (5)): 0 | Time taken for the efficacy to be shown: 3-5 days (number of persons) ([7]; Total (5)): 0 | Time taken for the efficacy to be shown: 7 days (number of persons) ([7]; Total (5)): 5 | Time taken for the efficacy to be shown: 14 days (number of persons) ([7]; Total (5)): 0 | Time taken for the efficacy to be shown: 21 days (number of persons) ([7]; Total (5)): 0 | Time taken for the efficacy to be shown: 28 days (number of persons) ([7]; Total (5)): 0 | Time taken for the efficacy to be shown: Minor effect (number of persons) ([7]; Total (5)): 0 | Effects of epilation (photograph, naked eyes) [8]: considerable effects of epilation

CC(C)(C)NC(=O)[C@H]1CC[C@H]2[C@@H]3CC[C@H]4NC(=O)C=C[C@]4(C)[C@H]3CC[C@]12C [finasteride]
Average weight of prostate glands ([1]; DHTP 20 μg hypodermic + drug oral daily (finasteride 0.5 mg, composition 5 mg)): 53.1 ± 1.4 mg and 53.1 mg | Weight of prostate glands after inducement with DHTP [1]: not greatly affected | Average weight of prostate glands ([1]; TP 10 μg hypodermic + drug oral daily (finasteride 0.5 mg, composition 5 mg)): 24.5 ± 1.6 mg and 24.5 mg | Size of prostate glands enlarged by inducement with TP [1]: reduced to the normal size | Average weight of prostate glands [4]: 220.0 mg | Weight of prostate glands versus solvent control group [4]: significantly lower

— US8088775B2, “Pharmaceutical composition for treating hair loss” (priority 2004, dated 2012)
